The text below walks through data of patent publication US20050148495A1, “Methods and materials including for treating acne” (priority 2003, published 2005).

One data set relates to Corynebacterium. Briefly: microbe, parasite or virus in culture. In kind it is cell-based.
In a further data set the test system is Enterococcus. In kind it is cell-based.
The subject of another data set is Candida. In kind it is cell-based.
Data set [1] deals with E. coli 0111 :B4 lipopolysaccharide challenge in CD-1 mice. In words: Murine model of endotoxemia (survival). Conditions: 0.65 mg/kg intravenously; 25 mg/kg LPS; seven days. In kind it is in vivo. The method, then: This example addresses studies relating to additional activities of XMP.629, including its known endotoxin-related activities. […] For these studies, groups of 15 male CD-1 mice were challenged with 25 mg/kg E. coli 0111 :B4 lipopolysaccharide via tail vein injection. Immediately following endotoxin challenge, mice were treated intravenously with XMP.629 at 0.07, 0.2, 0.65 mg/kg or saline. Animals were observed twice daily and mortality was recorded for seven days.

Data set [2] in a line: Additional studies: intravenous administration safety. In kind it is in vivo. Conditions: intravenously. The method, then:
In additional studies in an acute peritonitis model, mice were challenged intraperitoneally with 1.4×10^7 CFU E. coli 07:K1 and treated intraperitoneally with XMP.629 at 1, 3, or 10 mg/kg or saline. Mice were observed twice daily and mortality was recorded for seven days. Statistical comparisons between the treatment groups and saline were performed using a Chi Square test. […] At 10 mg/kg, 87% protection was observed. In additional studies, XMP.629 was safely administered at a dose of 20 mg/kg intravenously.

Data set [3] relates to polychromatic erythrocyte (PCE) cells in mouse bone marrow. Briefly: Mouse bone marrow micronucleus assay. It counts as in vivo, Crl:CD-1(ICR) BR mouse. The method, then:
XMP.629 was next evaluated for in vivo clastogenic activity and/or disruption of mitotic apparatus by detecting micronuclei in polychromatic erythrocyte (PCE) cells in Crl:CD-1®(ICR) BR mouse bone marrow. The assay design was based on OECD Guideline 474, updated and adopted Jul. 21, 1997. In this micronucleus assay, XMP.629 was formulated in 10 mM sodium acetate buffer (pH 6.0) and dosed by intraperitoneal injection to six males per dose level at each scheduled harvest timepoint. The dose levels were 2, 4, or 8 mg/kg. Five animals dosed with XMP.629 at 2 or 4 mg/kg and five animals dosed with a positive control were euthanized approximately 24 hours after dosing for extraction of the bone marrow. Five animals per harvest timepoint dosed with XMP.629 at 8 mg/kg and five animals per harvest timepoint dosed with the vehicle control article were euthanized approximately 24 or 48 hours after dosing for extraction of the bone marrow. This micronucleus test can serve as a rapid screen for compounds which interfere with normal mitotic cell division (Schmid, 1975, Mutat. Res. 31: 9-15; Heddle et al., 1983, Mutat. Res. 123: 61-118; Heddle et al., 1991, Env. And Mol. Mutagen. 18: 277-291). At least 2000 PCEs per animal were analyzed for the frequency of micronuclei. Cytotoxicity was assessed by scoring the number of PCEs and normochromatic erythrocytes (NCEs) in at least the first 500 erythrocytes for each avenal. […] Therefore, XMP.629 was determined to be negative in the mouse bone marrow micronucleus assay.

A further data set relates to Staphylococcus aureus. Conditions: for MBC: agent alone.

Values after ≈ are worked out from the molar mass of the structure shown. Read-outs that look alike come from different tables or passages of the source. Non-standard residues stand in square brackets, D forms with d. Residues, ends and D or L forms follow the SMILES beside them. d1Nal = N[C@H](Cc1cccc2ccccc12)C(=O)O A value given as a limit tells only on which side of the number the result lay.

Procedure for Candida: (§1) Control tubes containing only water or formulation buffer were prepared for each isolate. Initial growth controls were determined by removing 10 μL from the water control tube and diluting it by 100 fold. From this dilution, 10 μL was used for inoculation and for spreading over the surface onto Laked Blood Agar (LBA) (Anaerobe Systems, Morgan Hill, Calif.) plates. The tubes and plates were incubated in an anaerobic atmosphere at 37° C. for 48 h. […] MBC50 and 90 values represent where 50 and 90%, respectively, of the tested strain's MBC values are equal to or less than the indicated concentration.
Procedure for Corynebacterium: as §1
Procedure for Enterococcus: as §1

What is called MBC is the smallest concentration meeting the test's criterion for killing. Lower therefore signals greater bactericidal potency. Take `CC(C)C[C@@H](NC(=O)[C@H](N)CCCCN)C(=O)N[C@H](Cc1ccccc1)C(=O)N[C@H](CCCNC(=N)N)C(=O)N[C@H](Cc1cccc2ccccc12)C(=O)N[C@H](CCC(N)=O)C(=O)N[C@H](C)C(=O)N[C@H](CCCCN)C(=O)N[C@H](Cc1cccc2ccccc12)C(N)=O` [XMP.629, NH2-lys-leu-phe-arg-(3-(1-naphthyl)-ala)-gln-ala-lys-(3-(1-naphthyl)-ala)-CONH2] (H-[dK][dL][dF][dR][d1Nal][dQ][dA][dK][d1Nal]-NH2): the “MIC90, XMP.629 data reported as MBC values” was 0.25 mg/L (≈ 0.195 µM) against Corynebacterium; <0.25 mg/L in the data set on Corynebacterium (in FB (formulation buffer)); 4 mg/L (≈ 3.12 µM) against Enterococcus; 0.5 mg/L (≈ 0.39 µM) against Enterococcus (in FB (formulation buffer)); 1 mg/L (≈ 0.779 µM) against Candida; 0.5 mg/L (≈ 0.39 µM) against Candida (in FB (formulation buffer)). The “survival in endotoxin-challenged mice” value in data set [1] is given as “complete protection”. The same molecule yielded a dose safely administered in data set [2] of 20 mg/kg. Further, the “mouse bone marrow micronucleus assay result” value in data set [3] (2, 4, or 8 mg/kg intraperitoneal) is “negative”. Also, in data set [3] (any dose level tested), the “cytotoxicity to the bone marrow (PCE:NCE ratios)” value was “not cytotoxic to the bone marrow”. Moreover, the “signs of clinical toxicity” value in data set [3] (up to 8 mg/kg) is reported as “did not induce any signs of clinical toxicity”. The MBC in the data set with Staphylococcus aureus (Staphylococcus aureus 076U-550) was found to be 8 mg/L (≈ 6.23 µM); with Staphylococcus aureus (Staphylococcus aureus 230U-579) it was 8 mg/L (≈ 6.23 µM); with Staphylococcus aureus (Staphylococcus aureus 314U-148), 8 mg/L (≈ 6.23 µM); against Staphylococcus aureus (Staphylococcus aureus 342U-116), 8 mg/L (≈ 6.23 µM); against Staphylococcus aureus (Staphylococcus aureus 15031-1857), 4 mg/L (≈ 3.12 µM). Further, the “XMP.629 MBC” value in the data set on Staphylococcus aureus (Staphylococcus aureus 342U-116, XMP.629 alone) was 8 mg/L.
